Laboratory results: patent publication US9884012B2, “Use of PEDF-derived polypeptides for promoting muscle or tendon regeneration or arteriogenesis” (MacKay Memorial Hospital, priority 2012, dated 2018)

Experiments:
[1] = system: soleus muscle (muscle fibers, satellite cells); experiment: bupivacaine myonecrosis model, BrdU and Pax7 labeling of soleus muscle; format: in vivo, Sprague-Dawley rats; settings: soleus muscle after bupivacaine injection; for BrdU Labeling Index (%): 50 μl sustained-release formulation (Bolus: bolus 29-mer), single intramuscular injection; for Pax7 Labeling Index (%): sustained-release formulation (Bolus: bolus 29-mer)
Description: De-paraffinized tissue sections were blocked with 10% goat serum for 1 hour. Staining was done using primary antibodies against BrdU (1:50 dilution; GTX42641) or type I collagen 1A1 (1:50 dilution) overnight at 4° C., followed by incubation with the appropriate peroxidase-labeled donkey immunoglobulin for 30 min and then with chromogen substrate (3,3′-diaminobenzidine) for 2 min before counterstaining with hematoxylin. Quantification was estimated based on high quality images (1208×960 pixels) captured using a Nikon Eclipse 80i light microscope.
For the detection of cell expansion, BrdU was reconstituted in DMSO as stock (80 mM). 10 μl of BrdU mixed with 90 μl of PBS was intraperitoneally injected into the mouse 16 hours prior to euthanasia. Also, 150 μl of BrdU mixed with 350 μl of PBS was intraperitoneally injected into the rat 16 hours prior to euthanasia. DNA synthesis was assessed by BrdU labeling with anti-BrdU antibodies.
De-paraffinized tissue sections or 4% paraformaldehyde fixed rabbit tendon stem cells (TSCs) were blocked with 10% goat serum and 5% BSA for 1 hour. Double staining was done using primary antibodies against α-SMA (1:100 dilution), IB4 (5 μg/ml), Pax7 (1:100 dilution), nucleostemin (1:100 dilution) and type I collagen 1A1 (1:50) at 37° C. for 2 hours, followed by incubation with the appropriate rhodamine- or FITC-conjugated donkey IgG for 1 hour at RT. Nuclei were located by counterstaining with Hoechst 33258 for 7 minutes. Images were captured using a Zeiss epifluorescence microscope with a CCD camera.
(§1) To investigate the effects of the present PEDF peptides on muscle regeneration, a rat myonecrosis model of a single injection of bupivacaine into the soleus muscle was employed. Adult 10-week-old male Sprague-Dawley rats (initial body weight=312±11 g) were anesthetized by an intraperitoneal injection of a xylazine (10 mg/kg). Then, the soleus muscle was injured by unilaterally injecting 0.5 ml bupivacaine (AstraZeneca) with a disposable syringe with a 26-gauge needle. Briefly, the needle was inserted into the distal portion of the soleus muscle and then receded longitudinally to the proximal portion accompanying evenly bupivacaine solution injection. The solution was then injected throughout the entire length of the muscle as the needle was slowly withdrawn.
After bupivacaine injection, rats were divided equally (n=10/group) into four experimental groups and treated as follows. […]
Muscle regeneration involves proliferation of muscle fibers, or muscle cells. […] Detailed assay procedures are as described in “Materials and Methods.” The level of BrdU-positive cells was expressed as labeling index (%), which was computed as the number of labeled cells divided by the total number of cells. […]

soleus muscle [2] = experiment: bupivacaine myonecrosis model, muscle fiber size (minimal Feret's diameter); format: in vivo, Sprague-Dawley rats; settings: 14 days after injury; for diameters of muscle fibers on average versus blank or bolus control group: in words
Description: The muscle fiber size was determined on H&E-stained muscle cross section and quantified using the minimum distance of parallel tangents at opposing particle borders (minimal “Feret's diameter”). Pictures were captured using a Nikon Eclipse 80i light microscope, and the minimal Feret's diameter was measured using the Image-Pro Plus 4.5.1 software (Media Cybernetics). Normalization of the number of fibers in each fiber Feret class of 5 μm was based on the total number of muscle fibers in each picture.
as §1
(§2) After bupivacaine injection, rats were divided equally (n=10/group) into four experimental groups and treated as follows. In the blank control group, the mice were treated with 50 μl of blank alginate gel. In the treatments groups, the mice received 50 μl of the sustained-release formulation (29-mer or 20-mer). The mice in the bolus control group received the bolus formulation (29-mer). Treatments were applied by way of a single intramuscular injection to the soleus muscle immediately after the bupivacaine perfusion.
In the later stage of muscle regeneration, newly generated muscle fibers start to gain size. Muscle specimens were collected at 14 days after injury, and respective fiber diameters were measured in accordance with the procedure set forth in the section of “Materials and Methods.” Results were summarized in FIG. 9.

[3] = in vitro release of PEDF peptides from alginate gel in PBS; format: physicochemical; settings: PBS pH 7.4, 37° C.; for peptide remained in the alginate gel matrix: after 24 hours, FITC-conjugated peptide in alginate hydrogel
Description: Each PEDF-derived short synthetic peptide (the 29-mer, 25-mer, 24-mer, 20-mer, 18-mer, MO 29-mer, or MO 20-mer; hereinbelow, PEDF peptide) was reconstituted in DMSO as stock (5 mM). Then, ultrapure alginate was mixed with the stock to obtain a 2% wt/vol alginate solution with PEDF peptide at a final concentration of 10 μM. The alginate solution was then filtered by membrane filter (pore size, 0.22 μm) and mixed with filtered calcium sulfate (0.21 g CaSO4/mL of dH2O) at a ratio of 25:1 (40 μL of CaSO4 per 1 mL of the filtered alginate solution). The mixture was let standing at RT for about 1 hour to allow for the cross-linking of the alginate. The resultant sustained-release formulation was then used in the treatment of muscle or tendon damage and ischemia.
To determine the release kinetics of 29-mer and 20mer, 100 μg of FITC-conjugated PEDF peptide was mixed with 100 μL alginate solution, and then hydrogels were prepared as set forth in the “Materials and Methods” section. Thereafter, 100 mg hydrogel was incubated in 1.5 ml of PBS (pH 7.4) in microcentrifuge tube and placed in an orbital shaking incubator over a 6-day period at 37° C. The tube was centrifuged at each predetermined time point and then 200 μL of supernatant was removed and stored at −80° C. for further analysis, and 200 μL of fresh PBS was added to the tube to replace the supernatant withdrawn. The concentration of FITC-conjugated PEDF peptide present in the collected supernatants was determined using a fluorimeter in 96-well format. A known non-encapsulated FITC-peptide was used to generate a standard curve. Triplicate data were used for analysis.

soleus muscle [4] = experiment: bupivacaine myonecrosis model, centrally nucleated muscle fibers; format: in vivo, Sprague-Dawley rats; settings: for centrally nucleated fibers in regenerating muscle: 14 days after the bupivacaine injection, in words; for Centrally nucleated fibers (%): day 7 after the bupivacaine injection, soleus muscle, sustained-release formulation (Bolus: bolus 29-mer)
Description: To ascertain the number of centrally nucleated muscle fibers, sections were stained with H&E and then photographed as described above. At least 100 stained fibers were randomly chosen from each photo. Muscle fibers were judged centrally nucleated if one or more nuclei were not located at the periphery of the fiber. The data were expressed as a % of the total number of muscle fibers counted. Results were evaluated from 6 sections per muscle section, and 10 mice at each group.
as §1, §2
In the process of muscle regeneration, newly generated muscle fibers typically contain central located nuclei. […] Statistical analysis regarding the percentage of centrally nucleated fibers was performed at day 7 after the bupivacaine injection, and the results were summarized in Table 6.

aortic ring explants = experiment: rat aortic ring sprouting assay (ex vivo neovessel sprouting); format: cell-based; settings: aortic rings cultured with PEDF peptide, in words

Row | Sequence | BrdU Labeling Index (%) [1] [%] | Pax7 Labeling Index (%) [1] [%] | diameters of muscle fibers on average versus blank or bolus control group (soleus muscle [2]) | peptide remained in the alginate gel matrix [3] | peptide released from alginate gel ([3]; within the first 4 days) [%] | centrally nucleated fibers in regenerating muscle (soleus muscle [4]) | Centrally nucleated fibers (%) (soleus muscle [4]) | neovessel phenotype by dual immunofluorescence (α-SMA / isolectin B4) (aortic ring explants) | muscle fibers with a minimal Feret's diameter between 15-25 μm (soleus muscle [2]; sustained-release formulation) | peptide released from alginate gel ([3]; in the first 3 days)
1 | SLGAEQRTESIIHRALYYDLISSPDIHGT [29-mer, synthetic peptide corresponding to residues 93-121 of human PEDF] | 15.4 ± 1.7 | 16.2 ± 2.0 | larger | approximately 48% | 90 | much less centrally nucleated fibers | 75.2 ± 7.0 | displayed arteriole phenotype with a SMC coating | – | –
2 | SLGAEQRTESIIHRALYYDL [20-mer, synthetic peptide corresponding to residues 93-112 of human PEDF] | 13.6 ± 3.0 | 14.6 ± 1.9 | larger | ~35% | – | much less centrally nucleated fibers | 63.3 ± 7.4 | displayed arteriole phenotype with a SMC coating | about 56.6% | about 90%
